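A five-concentration, 48-hour dose response in 96-well plates underlies each endpoint, interpolated linearly between surrounding concentrations. Definition used: TGI = concentration required for complete inhibition of growth.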
Assays:
Test in all cases: NCI-60 cell line screen, 48 h
786-0 renal = test system: 786-0 renal
A549 NSCLC = test system: A549 NSCLC
CAKI-1 renal = test system: CAKI-1 renal
CCRF-CEM leukemia = test system: CCRF-CEM leukemia
COLO 205 colon = test system: COLO 205 colon
DU-145 prostate = test system: DU-145 prostate
EKVX NSCLC = test system: EKVX NSCLC
HCC-2998 colon = test system: HCC-2998 colon
HCT-15 colon = test system: HCT-15 colon
HL-60(TB) leukemia = test system: HL-60(TB) leukemia
HOP-62 NSCLC = test system: HOP-62 NSCLC
HOP-92 NSCLC = test system: HOP-92 NSCLC
HT29 colon = test system: HT29 colon
IGROV1 ovarian = test system: IGROV1 ovarian
K-562 leukemia = test system: K-562 leukemia
KM12 colon = test system: KM12 colon
LOX IMVI melanoma = test system: LOX IMVI melanoma
M14 melanoma = test system: M14 melanoma
MALME-3M melanoma = test system: MALME-3M melanoma
MCF7 breast = test system: MCF7 breast
MDA-MB-231 breast = test system: MDA-MB-231 breast
MDA-MB-435 = test system: MDA-MB-435
MDA-N = test system: MDA-N
MOLT-4 leukemia = test system: MOLT-4 leukemia
NCI-H23 lung = test system: NCI-H23 lung
OVCAR-4 ovarian = test system: OVCAR-4 ovarian
OVCAR-8 ovarian = test system: OVCAR-8 ovarian
PC-3 prostate = test system: PC-3 prostate
RPMI-8226 leukemia = test system: RPMI-8226 leukemia
RXF 393 renal = test system: RXF 393 renal
SF-268 CNS = test system: SF-268 CNS
SF-295 CNS = test system: SF-295 CNS
SK-MEL-28 melanoma = test system: SK-MEL-28 melanoma
SK-MEL-5 melanoma = test system: SK-MEL-5 melanoma
SK-OV-3 ovarian = test system: SK-OV-3 ovarian
SN12C renal = test system: SN12C renal
SNB-75 CNS = test system: SNB-75 CNS
SR leukemia = test system: SR leukemia
SW-620 colon = test system: SW-620 colon
T-47D breast = test system: T-47D breast
TK-10 renal = test system: TK-10 renal
UACC-257 melanoma = test system: UACC-257 melanoma
UACC-62 melanoma = test system: UACC-62 melanoma
A498 renal = test system: A498 renal
ACHN renal = test system: ACHN renal
HCT-116 colon = test system: HCT-116 colon
HS 578T breast = test system: HS 578T breast
NCI-H226 lung = test system: NCI-H226 lung
NCI-H460 lung = test system: NCI-H460 lung
NCI-H522 lung = test system: NCI-H522 lung
NCI/ADR-RES ovarian = test system: NCI/ADR-RES ovarian
OVCAR-3 ovarian = test system: OVCAR-3 ovarian
OVCAR-5 ovarian = test system: OVCAR-5 ovarian
SF-539 CNS = test system: SF-539 CNS
SK-MEL-2 melanoma = test system: SK-MEL-2 melanoma
SNB-19 CNS = test system: SNB-19 CNS
U251 CNS = test system: U251 CNS
UO-31 renal = test system: UO-31 renal

`CC1=C2CN(C(=O)OCC(C)C)CCC2C2=C(C(=O)c3ccccc3C2=O)C1C` (stereo not given) was tested, and the TGI (786-0 renal) was > 10 µM, the TGI (A549 NSCLC) was > 10 µM and the TGI (CAKI-1 renal) was > 10 µM. The TGI (CCRF-CEM leukemia) was > 10 µM, the TGI (COLO 205 colon) was > 10 µM and the TGI (DU-145 prostate) was > 10 µM. The TGI (EKVX NSCLC) was > 10 µM, the TGI (HCC-2998 colon) was > 10 µM and the TGI (HCT-15 colon) was > 10 µM. The TGI (HL-60(TB) leukemia) was > 10 µM, the TGI (HOP-62 NSCLC) was > 10 µM and the TGI (HOP-92 NSCLC) was > 10 µM. For the same molecule, the TGI (HT29 colon) was > 10 µM, the TGI (IGROV1 ovarian) was > 10 µM and the TGI (K-562 leukemia) was > 10 µM. For the same molecule, the TGI (KM12 colon) was > 10 µM, the TGI (LOX IMVI melanoma) was > 10 µM and the TGI (M14 melanoma) was > 10 µM. For the same molecule, the TGI (MALME-3M melanoma) was > 10 µM, the TGI (MCF7 breast) was > 10 µM and the TGI (MDA-MB-231 breast) was > 10 µM. For the same molecule, the TGI (MDA-MB-435) was > 10 µM, the TGI (MDA-N) was > 10 µM and the TGI (MOLT-4 leukemia) was > 10 µM. The TGI (NCI-H23 lung) was > 10 µM, the TGI (OVCAR-4 ovarian) was > 10 µM and the TGI (OVCAR-8 ovarian) was > 10 µM. The TGI (PC-3 prostate) was > 10 µM, the TGI (RPMI-8226 leukemia) was > 10 µM and the TGI (RXF 393 renal) was > 10 µM. The TGI (SF-268 CNS) was > 10 µM, the TGI (SF-295 CNS) was > 10 µM and the TGI (SK-MEL-28 melanoma) was > 10 µM. For the same molecule, the TGI (SK-MEL-5 melanoma) was > 10 µM, the TGI (SK-OV-3 ovarian) was > 10 µM and the TGI (SN12C renal) was > 10 µM. For the same molecule, the TGI (SNB-75 CNS) was > 10 µM, the TGI (SR leukemia) was > 10 µM and the TGI (SW-620 colon) was > 10 µM. For the same molecule, the TGI (T-47D breast) was > 10 µM, the TGI (TK-10 renal) was > 10 µM and the TGI (UACC-257 melanoma) was > 10 µM. The TGI (UACC-62 melanoma) was > 10 µM.

In the case of `Cc1cn(C2CC(NC(=NCC3OC(n4cnc5c(N)ncnc54)CC3O)NC#N)C(CO)O2)c(=O)[nH]c1=O` (stereo not given), the TGI (786-0 renal) was > 100 µM, the TGI (A498 renal) was > 100 µM and the TGI (A549 NSCLC) was > 100 µM. For the same molecule, the TGI (ACHN renal) was > 100 µM, the TGI (CAKI-1 renal) was > 100 µM and the TGI (CCRF-CEM leukemia) was > 100 µM. For the same molecule, the TGI (COLO 205 colon) was > 100 µM, the TGI (DU-145 prostate) was > 100 µM and the TGI (EKVX NSCLC) was > 100 µM. The TGI (HCC-2998 colon) was > 100 µM, the TGI (HCT-116 colon) was > 100 µM and the TGI (HCT-15 colon) was > 100 µM. The TGI (HL-60(TB) leukemia) was > 100 µM, the TGI (HOP-62 NSCLC) was > 100 µM and the TGI (HOP-92 NSCLC) was > 100 µM. For the same molecule, the TGI (HS 578T breast) was > 100 µM, the TGI (HT29 colon) was > 100 µM and the TGI (IGROV1 ovarian) was > 100 µM. For the same molecule, the TGI (K-562 leukemia) was > 100 µM, the TGI (KM12 colon) was > 100 µM and the TGI (LOX IMVI melanoma) was > 100 µM. For the same molecule, the TGI (M14 melanoma) was > 100 µM, the TGI (MALME-3M melanoma) was > 100 µM and the TGI (MCF7 breast) was > 100 µM. For the same molecule, the TGI (MDA-MB-231 breast) was > 100 µM, the TGI (MDA-MB-435) was > 100 µM and the TGI (MDA-N) was > 100 µM. For the same molecule, the TGI (MOLT-4 leukemia) was > 100 µM, the TGI (NCI-H226 lung) was > 100 µM and the TGI (NCI-H23 lung) was > 100 µM. For the same molecule, the TGI (NCI-H460 lung) was > 100 µM, the TGI (NCI-H522 lung) was > 100 µM and the TGI (NCI/ADR-RES ovarian) was > 100 µM. For the same molecule, the TGI (OVCAR-3 ovarian) was > 100 µM, the TGI (OVCAR-4 ovarian) was > 100 µM and the TGI (OVCAR-5 ovarian) was > 100 µM. For the same molecule, the TGI (OVCAR-8 ovarian) was > 100 µM, the TGI (PC-3 prostate) was > 100 µM and the TGI (RXF 393 renal) was > 100 µM. For the same molecule, the TGI (SF-268 CNS) was > 100 µM, the TGI (SF-295 CNS) was > 100 µM and the TGI (SF-539 CNS) was > 100 µM. For the same molecule, the TGI (SK-MEL-2 melanoma) was > 100 µM, the TGI (SK-MEL-28 melanoma) was > 100 µM and the TGI (SK-MEL-5 melanoma) was > 100 µM. For the same molecule, the TGI (SK-OV-3 ovarian) was > 100 µM, the TGI (SN12C renal) was > 100 µM and the TGI (SNB-19 CNS) was > 100 µM. For the same molecule, the TGI (SNB-75 CNS) was > 100 µM, the TGI (SR leukemia) was > 100 µM and the TGI (SW-620 colon) was > 100 µM. The TGI (T-47D breast) was > 100 µM, the TGI (TK-10 renal) was > 100 µM and the TGI (U251 CNS) was > 100 µM. The TGI (UACC-257 melanoma) was > 100 µM, the TGI (UACC-62 melanoma) was > 100 µM and the TGI (UO-31 renal) was > 100 µM.
